The results in this text go back to patent publication EP1309253B1, “METHODS AND DEVICES FOR REMOVING NU[…] FROM TOBACCO AND TOBACCO SMOKE” (Cerami Consulting Corporation, priority 2000, dated 2002).

Molecules are shown by their SMILES.

The conditions of this experiment: 250 mg portions of each compound as filter; smoke from one cigarette drawn through 3 mls of distilled water; read at 405 nm; compared with control cigarette. The protocol: The treated fibers were then dried overnight at 37 C. The smoke from one cigarette was drawn through the filter material and then through 3 mls of distilled water using a water-pipe smoking device which was constructed from a 25 ml glass Erlenmeyer flask attached to a vacuum source with an air flow rate of approximately 35 ml/min. Three 100 microliter aliquots were removed from each flask, placed into ELISA plate wells and read in an ELISA plate reader at 405 nm. The percentage or tar removed is based on a comparison between the cigarette comprising the filter containing the test agent and an appropriate control cigarette.
The treated fibers were dried at 37 C overnight and then made into a tobacco cigarette using a tube cigarette maker. The smoke from 1 of each type of filter cigarette was then drawn through 3 mls of distilled water using a water-pipe smoking device which was constructed from a small (25 ml) glass Erlenmeyer flask attached to a vacuum source with an air flow rate of approximately 35 ml/min. Three 100 microliter aliquots were removed from each flask, placed into ELISA plated wells and read in an ELISA plate reader at 405 nm.
`O=Cc1cccc(OCCOc2cccc(C=O)c2)c1` [Ethylenedioxybis(3-benzaldehyde)]: the “% TAR REMOVAL” value is listed as 19.3%. Under `O=C(/C=C/C(=O)c1ccccc1)c1ccccc1` [Fumarophenone] stands 87.5%; under `O=C(C=CC=Cc1ccccc1)C=CC=Cc1ccccc1` [Dicinnamalacetone], 98.1%; under `O=C1NC(=O)C(=O)C(=O)N1` [Alloxan], 96.9%. `O=Cc1ccccc1C=O` [O-phthaldialdehyde]: the “% TAR REMOVAL” value turned out to be 84%. As for `O=C1c2ccccc2C(=O)C1(O)C1(O)C(=O)c2ccccc2C1=O` [Hydrindantin], the “% TAR REMOVAL” value is on record as 95%. To `CC12CCC(C(=O)C1=O)C2(C)C` (stereo not shown) [Camphorquinone] belongs 53.9%; to `O=C1C=C2CC3(O)COc4c(ccc(O)c4O)C3=C2C=C1O` (stereo not shown) [Hematein, 6a,7-dihydro-3,4,6a,10 tetrahydroxyben[b]indeno[1,2-d]pyran-9(6H)-one], 48.7%. Under `O=C1c2ccccc2C(=O)C1(O)O` [Ninhydrin] stands 83%; under `O=CC(=O)c1ccccc1` [Phenylglyoxal], 53%; under `C[C@H](NC(=O)OC(C)(C)C)C(=O)ON1C(=O)CCC1=O` [N-α-t-BOC-L-alanine-N-hydroxysuccinimide ester], 25%. Under `CC1(C)CC(=O)CC(=O)C1` [(5,5-dimethyl-1,3-cyclohexanedione, 5,5-dimethyl-1,3-cyclohexanedione] stands 26%; under `CC(C)(C)OC(=O)NCCCCCC(=O)ON1C(=O)CCC1=O` [BOC-ε-aminocaproic acid-N-hydroxysuccinimide ester], 74%.
